Entries after “also recorded” stand apart in the source; their conditions may differ.
Assays:
Assay in all cases: AHC metabolism by recombinant cDNA-expressed CYP isoform
Type in all cases: in vitro ADME
[1] = molecular target: T1, CYP1A1 (Homo sapiens, UniProt P04798); conditions: 10 µM AHC, 10 pmol recombinant CYP, NGS, 37 °C, 60 min
T1 construct: purchased Corning Gentest
T1 sequence (P04798 1-512): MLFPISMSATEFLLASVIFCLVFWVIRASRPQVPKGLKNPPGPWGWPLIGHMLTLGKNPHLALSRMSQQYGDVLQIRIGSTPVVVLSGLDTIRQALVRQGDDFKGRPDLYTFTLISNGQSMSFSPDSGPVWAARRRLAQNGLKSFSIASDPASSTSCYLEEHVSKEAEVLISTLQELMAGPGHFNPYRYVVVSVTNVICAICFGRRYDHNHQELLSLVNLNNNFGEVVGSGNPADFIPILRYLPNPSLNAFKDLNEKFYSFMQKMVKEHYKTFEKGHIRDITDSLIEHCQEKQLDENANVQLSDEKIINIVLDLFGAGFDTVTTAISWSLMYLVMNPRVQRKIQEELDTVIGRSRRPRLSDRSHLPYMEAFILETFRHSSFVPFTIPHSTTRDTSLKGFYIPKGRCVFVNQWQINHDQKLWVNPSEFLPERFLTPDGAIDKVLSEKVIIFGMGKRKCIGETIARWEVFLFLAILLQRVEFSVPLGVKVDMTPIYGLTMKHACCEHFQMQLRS
Protocol: (§1) To identify the metabolic enzymes for AHC, 10 µM AHC was incubated with 10 pmol of human recombinant cDNA-expressed CYP isoforms (CYP1A1, 1A2, 2A6, 2B6, 2C8, 2C9, 2C19, 2D6, 2E1, 3A4, and 3A5) in the presence of 0.1 M potassium phosphate buffer (pH 7.4). The reaction was initiated by adding 100 µL of NGS at 37 °C for 60 min. Then, the mixture was suspended by adding 400 µL of ice-cold 100% ACN. Following centrifugation at 15,700× g for 10 min at 4 °C, the supernatant was transferred to a new tube and evaporated using a speed-vacuum concentrator. Next, the dried sample was diluted with 100 µL of 20% MeOH containing 0.1% formic acid, and a 5 µL aliquot was injected into a C18 column for LC–MS/MS analysis.
(§2) To identify the CYP isoforms involved in AHC metabolism, AHC (10 µM) was incubated with eleven cDNA-expressed recombinant CYP isoforms (CYP1A1, CYP1A2, CYP2A6, CYP2B6, CYP2C8, CYP2C9, CYP2C19, CYP2D6, CYP2E1, CYP3A4, and CYP3A5) in the presence of the NGS. […] However, the metabolites of AHC were not observed from reactions with other CYPs. Thus, in the metabolism of AHC in HLMs, CYP3A4 was involved as the main enzyme, and four types of metabolites were generated.

[2] = molecular target: T2, CYP1A2 (Homo sapiens, UniProt P05177); conditions: 10 µM AHC, 10 pmol recombinant CYP, NGS, 37 °C, 60 min
T2 construct: purchased Corning Gentest
T2 sequence (P05177 1-516): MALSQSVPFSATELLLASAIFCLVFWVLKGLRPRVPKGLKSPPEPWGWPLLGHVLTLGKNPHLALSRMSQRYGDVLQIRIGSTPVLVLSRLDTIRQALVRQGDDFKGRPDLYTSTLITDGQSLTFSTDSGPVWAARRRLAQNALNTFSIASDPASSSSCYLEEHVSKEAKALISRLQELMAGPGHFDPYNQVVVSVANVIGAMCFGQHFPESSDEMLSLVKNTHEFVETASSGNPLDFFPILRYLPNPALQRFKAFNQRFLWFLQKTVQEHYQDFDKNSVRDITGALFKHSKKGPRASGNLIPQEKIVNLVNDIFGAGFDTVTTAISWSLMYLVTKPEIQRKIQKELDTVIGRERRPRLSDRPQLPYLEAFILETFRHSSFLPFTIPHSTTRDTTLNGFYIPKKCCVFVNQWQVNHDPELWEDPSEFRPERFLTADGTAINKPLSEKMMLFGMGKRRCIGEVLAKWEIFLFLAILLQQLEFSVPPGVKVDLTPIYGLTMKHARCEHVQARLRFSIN
Protocol: as §1, §2

[3] = molecular target: T3, CYP2C19 (Homo sapiens, UniProt P33261); conditions: 10 µM AHC, 10 pmol recombinant CYP, NGS, 37 °C, 60 min
T3 construct: purchased Corning Gentest
Protocol: as §1, §2

[4] = molecular target: T4, CYP2C8 (Homo sapiens, UniProt P10632); conditions: 10 µM AHC, 10 pmol recombinant CYP, NGS, 37 °C, 60 min
T4 construct: purchased Corning Gentest
T4 sequence (P10632 1-490): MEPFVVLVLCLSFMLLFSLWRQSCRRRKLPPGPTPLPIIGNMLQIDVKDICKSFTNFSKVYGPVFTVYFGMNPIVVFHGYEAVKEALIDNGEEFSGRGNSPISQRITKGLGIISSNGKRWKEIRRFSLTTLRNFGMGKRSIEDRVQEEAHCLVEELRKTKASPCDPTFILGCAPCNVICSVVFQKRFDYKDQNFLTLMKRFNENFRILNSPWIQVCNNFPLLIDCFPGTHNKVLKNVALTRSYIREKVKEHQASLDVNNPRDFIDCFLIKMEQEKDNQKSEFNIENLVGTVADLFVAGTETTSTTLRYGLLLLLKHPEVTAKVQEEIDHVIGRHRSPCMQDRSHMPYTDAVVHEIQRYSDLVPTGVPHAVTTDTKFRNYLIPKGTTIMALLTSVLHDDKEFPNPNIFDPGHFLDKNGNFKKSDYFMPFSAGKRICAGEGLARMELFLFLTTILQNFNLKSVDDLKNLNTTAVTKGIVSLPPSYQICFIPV
Protocol: as §1, §2

[5] = molecular target: T5, CYP2C9 (Homo sapiens, UniProt P11712); conditions: 10 µM AHC, 10 pmol recombinant CYP, NGS, 37 °C, 60 min
T5 construct: purchased Corning Gentest
Protocol: as §1, §2

[6] = molecular target: T6, CYP2D6 (Homo sapiens, UniProt P10635); conditions: 10 µM AHC, 10 pmol recombinant CYP, NGS, 37 °C, 60 min
T6 construct: purchased Corning Gentest
Protocol: as §1, §2

[7] = molecular target: T7, CYP2E1 (Homo sapiens, UniProt P05181); conditions: 10 µM AHC, 10 pmol recombinant CYP, NGS, 37 °C, 60 min
T7 construct: purchased Corning Gentest
Protocol: as §1, §2

[8] = molecular target: T8, CYP3A4 (Homo sapiens, UniProt P08684); conditions: 10 µM AHC, 10 pmol recombinant CYP3A4, NGS, 37 °C, 60 min
T8 construct: purchased Corning Gentest
Protocol: as §1, §2

T8 sequence (P08684 whole entry): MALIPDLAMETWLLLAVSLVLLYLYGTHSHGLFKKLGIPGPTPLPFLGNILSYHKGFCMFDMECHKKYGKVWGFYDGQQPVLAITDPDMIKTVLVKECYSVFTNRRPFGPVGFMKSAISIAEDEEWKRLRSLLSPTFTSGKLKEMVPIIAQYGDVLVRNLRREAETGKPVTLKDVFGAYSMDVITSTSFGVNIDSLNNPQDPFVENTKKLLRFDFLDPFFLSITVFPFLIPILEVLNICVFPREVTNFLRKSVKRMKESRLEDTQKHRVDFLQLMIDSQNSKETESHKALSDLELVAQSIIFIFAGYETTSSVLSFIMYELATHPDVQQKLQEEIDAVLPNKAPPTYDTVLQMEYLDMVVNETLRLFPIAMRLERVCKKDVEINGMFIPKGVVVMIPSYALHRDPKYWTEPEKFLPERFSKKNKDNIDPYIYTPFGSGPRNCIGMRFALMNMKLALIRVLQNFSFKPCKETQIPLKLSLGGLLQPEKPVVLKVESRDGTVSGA
T7 sequence (P05181 whole entry): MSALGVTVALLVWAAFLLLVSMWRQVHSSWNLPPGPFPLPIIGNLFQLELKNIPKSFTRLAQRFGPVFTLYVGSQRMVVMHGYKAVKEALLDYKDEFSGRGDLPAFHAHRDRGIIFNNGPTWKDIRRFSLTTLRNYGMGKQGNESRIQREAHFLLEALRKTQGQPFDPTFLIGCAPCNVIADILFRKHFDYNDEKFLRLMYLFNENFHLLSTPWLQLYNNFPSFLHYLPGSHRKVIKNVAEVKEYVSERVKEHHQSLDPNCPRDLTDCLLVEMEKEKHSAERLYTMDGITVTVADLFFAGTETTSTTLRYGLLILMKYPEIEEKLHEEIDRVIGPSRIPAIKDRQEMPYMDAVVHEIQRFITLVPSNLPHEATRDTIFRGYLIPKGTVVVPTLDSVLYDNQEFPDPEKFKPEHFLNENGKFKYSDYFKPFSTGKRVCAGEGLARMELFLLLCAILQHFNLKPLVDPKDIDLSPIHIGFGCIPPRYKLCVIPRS
T5 sequence (P11712 whole entry): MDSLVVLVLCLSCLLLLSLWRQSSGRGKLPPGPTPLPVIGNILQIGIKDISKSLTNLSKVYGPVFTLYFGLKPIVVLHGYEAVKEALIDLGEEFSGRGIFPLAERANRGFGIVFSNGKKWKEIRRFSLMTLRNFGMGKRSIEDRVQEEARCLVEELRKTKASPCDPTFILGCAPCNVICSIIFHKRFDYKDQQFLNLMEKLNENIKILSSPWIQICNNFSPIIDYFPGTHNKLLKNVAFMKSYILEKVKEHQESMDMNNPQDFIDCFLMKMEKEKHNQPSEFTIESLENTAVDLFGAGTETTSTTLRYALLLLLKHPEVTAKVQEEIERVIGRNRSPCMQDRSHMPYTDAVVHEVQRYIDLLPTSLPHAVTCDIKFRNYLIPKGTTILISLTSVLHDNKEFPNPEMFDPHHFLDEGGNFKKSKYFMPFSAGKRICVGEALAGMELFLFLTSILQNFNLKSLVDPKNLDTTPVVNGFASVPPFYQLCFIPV
T3 sequence (P33261 whole entry): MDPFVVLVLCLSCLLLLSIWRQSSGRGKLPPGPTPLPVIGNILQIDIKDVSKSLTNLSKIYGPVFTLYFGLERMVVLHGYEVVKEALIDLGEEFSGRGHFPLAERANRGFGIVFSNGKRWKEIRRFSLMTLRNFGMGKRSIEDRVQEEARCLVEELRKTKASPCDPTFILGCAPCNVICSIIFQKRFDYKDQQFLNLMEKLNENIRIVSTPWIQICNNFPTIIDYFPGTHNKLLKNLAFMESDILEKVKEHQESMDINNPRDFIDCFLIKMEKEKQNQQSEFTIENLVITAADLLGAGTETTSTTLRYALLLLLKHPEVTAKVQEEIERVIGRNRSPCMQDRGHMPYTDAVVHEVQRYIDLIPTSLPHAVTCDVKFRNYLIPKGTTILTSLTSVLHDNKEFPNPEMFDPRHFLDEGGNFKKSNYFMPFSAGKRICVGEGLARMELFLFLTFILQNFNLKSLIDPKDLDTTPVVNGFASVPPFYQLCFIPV
T6 sequence (P10635 whole entry): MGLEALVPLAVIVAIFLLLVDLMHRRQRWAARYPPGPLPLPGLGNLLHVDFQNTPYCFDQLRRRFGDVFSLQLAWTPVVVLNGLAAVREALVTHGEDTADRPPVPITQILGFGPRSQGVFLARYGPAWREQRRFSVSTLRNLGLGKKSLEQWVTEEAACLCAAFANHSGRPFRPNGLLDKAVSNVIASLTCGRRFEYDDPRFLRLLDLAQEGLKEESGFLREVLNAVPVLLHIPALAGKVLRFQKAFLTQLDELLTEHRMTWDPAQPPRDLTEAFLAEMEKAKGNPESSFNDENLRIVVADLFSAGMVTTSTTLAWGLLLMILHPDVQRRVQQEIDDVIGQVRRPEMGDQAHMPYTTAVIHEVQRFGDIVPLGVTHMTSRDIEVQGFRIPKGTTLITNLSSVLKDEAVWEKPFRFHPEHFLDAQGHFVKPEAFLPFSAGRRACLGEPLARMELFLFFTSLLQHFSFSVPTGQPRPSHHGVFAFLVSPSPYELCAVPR

CC(=O)O[C@@H]1[C@@H](C)CC[C@]2(O)[C@]3(C)CC(=O)O[C@]12[C@@]1(O)C(C)=C(C(C)C)C[C@@]31O [AHC, anhydrocinnzeylanine]
metabolites of AHC from reaction with CYP1A1 [1]: not observed
metabolites of AHC from reaction with CYP1A2 [2]: not observed
metabolites of AHC from reaction with CYP2C19 [3]: not observed
metabolites of AHC from reaction with CYP2C8 [4]: not observed
metabolites of AHC from reaction with CYP2C9 [5]: not observed
metabolites of AHC from reaction with CYP2D6 [6]: not observed
metabolites of AHC from reaction with CYP2E1 [7]: not observed
metabolism of AHC by CYP3A4 [8]: major CYP responsible for the metabolism of AHC; also recorded: predominantly metabolized by CYP3A4
